Experimental findings from patent US9284303B2, “Benzimidazole cannabinoid agonists bearing a substituted heterocyclic group” (priority 2006, dated 2016) are described below.

The target of data set [1] is T1, human CB2 (hCB2) receptor (Homo sapiens, UniProt P34972).
T1 construct: expressed in transfected cells; host or cells: CHO-K1
Nature of the data set: Inhibition of forskolin-activated cAMP production upon activation of hCB2 (HTRF), CHO-K1 cells. Type of data set: cell-based. The following applies: for ratio CB2 agonism over CB1 agonism: Table C-1, selectivity hCB2 over hCB1; for ratio CB2 over CB1 agonism: Table C-3, comparison of art compounds A to E with compounds of the invention; for EC50: hCB2-CHO-K1 cells, forskolin-activated cAMP, pEC50=-log(EC50), read-out: CB2 pEC50 (converted). A general note: cAMP levels reflect the balance of adenylyl cyclase and phosphodiesterase activity.

Data set [2] addresses T2, human CB1 (hCB1) receptor (Homo sapiens, UniProt P21554).
T2 construct: expressed in transfected cells; host or cells: CHO-K1
As to the kind of experiment: Inhibition of forskolin-activated cAMP production upon activation of hCB1 (HTRF), CHO-K1 cells. The format is cell-based. The following applies: forskolin-activated cAMP, pEC50=-log(EC50); for EC50: CB1 pEC50, hCB1-CHO-K1 cells. In a few lines:
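CHO-K1 cells stably expressing hCB1 (20,000/well) were in HBSS stimulation buffer (1 mM IBMX, 10 mM MgCl2, 0.1% BSA, pH 7.4), with 6 μM forskolin in the compound buffer, 30 min at room temperature in the dark. cAMP was read as HTRF 665/620 ratio, normalized to DMSO and CP55490. Outputs were pEC50 and inhibition at 10 μM relative to CP55490.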

SMILES strings stand for the structures. Bounds are passed on as bounds.

T1 sequence (P34972 whole entry): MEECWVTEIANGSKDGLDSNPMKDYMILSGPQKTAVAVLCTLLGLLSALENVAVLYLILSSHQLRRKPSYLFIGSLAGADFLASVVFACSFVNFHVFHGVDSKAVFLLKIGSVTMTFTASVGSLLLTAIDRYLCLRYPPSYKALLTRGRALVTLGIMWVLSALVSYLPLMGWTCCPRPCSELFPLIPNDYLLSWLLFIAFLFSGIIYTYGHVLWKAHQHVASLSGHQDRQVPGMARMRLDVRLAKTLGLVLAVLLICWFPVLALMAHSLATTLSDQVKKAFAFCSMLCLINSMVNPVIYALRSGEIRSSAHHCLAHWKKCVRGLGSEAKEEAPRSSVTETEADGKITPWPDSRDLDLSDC
T2 sequence (P21554 whole entry): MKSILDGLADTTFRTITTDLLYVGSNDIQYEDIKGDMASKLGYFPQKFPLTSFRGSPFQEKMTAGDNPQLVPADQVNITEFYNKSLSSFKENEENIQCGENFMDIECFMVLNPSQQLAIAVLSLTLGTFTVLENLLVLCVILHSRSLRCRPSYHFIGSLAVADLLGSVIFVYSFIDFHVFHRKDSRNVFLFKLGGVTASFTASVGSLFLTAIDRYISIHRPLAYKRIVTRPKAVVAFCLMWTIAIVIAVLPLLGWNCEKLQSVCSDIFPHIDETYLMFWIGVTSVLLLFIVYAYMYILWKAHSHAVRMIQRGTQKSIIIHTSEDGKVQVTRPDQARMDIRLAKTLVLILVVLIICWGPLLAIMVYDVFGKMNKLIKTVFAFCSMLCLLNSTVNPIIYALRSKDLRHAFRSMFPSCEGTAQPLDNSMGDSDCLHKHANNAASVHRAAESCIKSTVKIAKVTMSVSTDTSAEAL

One may read the melting point as the temperature of the solid-liquid transition. `CC(C)(C)c1nc2cc(S(=O)(=O)c3ccnc(C#N)c3)ccc2n1CC1CCOCC1` [Co. No. 17] yielded a melting point of 201.2 °C. Moreover, in data set [1] (listed as 17), the “ratio CB2 agonism over CB1 agonism” value is on record as 5821. In addition, in data set [1], the “ratio CB2 over CB1 agonism” value was 5821 and the EC50 was 1.58 nM. In data set [2], this molecule gave an EC50 of 9330 nM.
Consider `CC(C)(C)c1nc2cc(S(=O)(=O)c3ccc(C(=O)N4CCOCC4)s3)ccc2n1CC1CCOCC1` [Co. No. 79], for which the melting point turned out to be 184.6 °C. In data set [1], the “ratio CB2 agonism over CB1 agonism” value is on record as 543 and the EC50 was 2.95 nM. Further, in data set [2], the EC50 is 1580 nM.
The like results for `CC(C)(C)c1nc2cc(S(=O)(=O)c3ccnc(Cl)c3)ccc2n1CC1CCOCC1` [Co. No. 18] were, in that order, 201 °C, 933, 0.676 nM and 631 nM.
The like results for `COC(=O)c1cc(S(=O)(=O)c2ccc3c(c2)nc(C(C)(C)C)n3CC2CCOCC2)c[nH]1` [Co. No. 75] were, in that order, 231 °C, 2291, 4.17 nM and 9550 nM.
For `CC(C)(C)c1nc2cc(S(=O)(=O)c3cncc(C(N)=O)c3)ccc2n1CC1CCOCC1` [Co. No. 44], in that order: 259 °C, 64, 2 nM and 126 nM.
Molecule `CC(C)(C)c1nc2cc(S(=O)(=O)c3cc(Cl)nc(Cl)c3)ccc2n1CC1CCOCC1` [Co. No. 71] showed a melting point of 198 °C. In data set [1], the “ratio CB2 agonism over CB1 agonism” value is on record as more than 13490 and the EC50 was 0.741 nM. The EC50 in data set [2] is more than 10000 nM.
The molecule `CC(C)(C)c1nc2cc([S+]([O-])c3c(Cl)cncc3Cl)ccc2n1CC1CCOCC1` (centres unmarked) [Co. No. 85] showed a melting point of 192.9 °C. In data set [1], the “ratio CB2 agonism over CB1 agonism” value is 891 and the EC50 is 0.933 nM. Further, in data set [2], the EC50 was 832 nM.
As to `Cc1cc(S(=O)(=O)c2ccc3c(c2)nc(CC(C)(C)C)n3CC2CCOCC2)cc[n+]1[O-]` [Co. No. 102], the melting point stood at 231.7 °C. For the same molecule, in data set [1], the EC50 was 5.01 nM. In addition, in data set [2], the EC50 was 9120 nM.
In the case of `Cn1cc(S(=O)(=O)c2ccc3c(c2)nc(C(C)(C)C)n3CC2CCN(C=O)CC2)cn1` [Co. No. 156], the melting point was found to be 213.9 °C. In data set [1], the “ratio CB2 agonism over CB1 agonism” value was 617 and the EC50 is 4.07 nM. For the same molecule, in data set [2], the EC50 was 2510 nM.
As for `CC(C)(C)c1nc2cc(S(=O)(=O)c3cncc(C#N)c3)ccc2n1CC1CCCCC1` [Co. No. 36], the melting point lay in the range of 215 to 216 °C. In addition, in data set [1], the “ratio CB2 agonism over CB1 agonism” value was found to be 108 and the EC50 was 0.676 nM. In data set [2], this molecule had an EC50 of 72.4 nM.
For `CC(C)(C)CCn1c(C(C)(C)C)nc2cc(S(=O)(=O)c3ccnc(F)c3)ccc21` [Co. No. 120], in that order: 131.5 °C, more than 4365, 2.29 nM and more than 10000 nM.
As to `CC(C)(C)c1nc2cc(S(=O)(=O)c3ccc(O)nc3)ccc2n1CC1CCOCC1` [Co. No. 1], the melting point is 251 °C. In data set [1], the “ratio CB2 agonism over CB1 agonism” value is recorded as more than 1995, the “ratio CB2 over CB1 agonism” value came out at 1995 and the EC50 is 5.01 nM. Besides, in data set [2], the EC50 was more than 10000 nM.
In turn, `Cc1cc(S(=O)(=O)c2ccc3c(c2)nc(C(C)(C)C)n3CC2CCOCC2)cc[n+]1[O-]` [Co. No. 89] had a melting point of 215.3 °C. Besides, the EC50 in data set [1] was 11.2 nM. For the same molecule, in data set [2], the EC50 is more than 10000 nM.
`CC(C)(C)c1nc2cc(S(=O)(=O)c3ccnc(OCCCO)c3)ccc2n1CC1CCOCC1` [Co. No. 152] registered a melting point of 161.5 °C. Also, in data set [1], the “ratio CB2 agonism over CB1 agonism” value turned out to be 3090 and the EC50 is 1.17 nM. Further, in data set [2] (hCB1-CHO-K1 cells), the “CB1 pEC50” value amounted to 5.44.
As for `CC(C)(C)c1nc2cc(S(=O)(=O)c3coc(C(F)(F)F)c3)ccc2n1CC1CCOCC1` [Co. No. 106], the melting point fell in the range of 168 to 169.5 °C. In data set [1], the “ratio CB2 agonism over CB1 agonism” value was found to be 432 and the EC50 is 0.724 nM. Besides, the EC50 in data set [2] is 316 nM.
For `COc1cc(S(=O)(=O)c2ccc3c(c2)nc(C(C)(C)C)n3CC2CCOCC2)c(F)cn1` [Co. No. 72], in that order: 139.6 to 140.2 °C, 1525, 0.676 nM and 1020 nM.
For `CC(C)(C)c1nc2cc(S(=O)(=O)c3ccc(C(C)(C)O)s3)ccc2n1CC1CCOCC1` [Co. No. 53], in that order: 258 °C, 607, 3.72 nM and 2240 nM.
The like results for `CC(C)(C)c1nc2cc(S(=O)(=O)c3ccc(S(C)(=O)=O)nc3)ccc2n1CC1CCOCC1` [Co. No. 56] were, in that order, 150 to 160 °C, more than 3802, 2.63 nM and more than 10000 nM.
On to `Cn1ccc(S(=O)(=O)c2ccc3c(c2)nc(C(C)(C)C)n3CC2CCOCC2)cc1=O` [Co. No. 69], for which the melting point worked out at 216 °C. Also, in data set [1], the “ratio CB2 agonism over CB1 agonism” value worked out at 398 and the EC50 is 1.74 nM. In data set [2], this molecule had an EC50 of 692 nM.
In the case of `COc1ccc(S(=O)(=O)c2ccc3c(c2)nc(C(C)(C)C)n3CC2CCOCC2)cn1` [Co. No. 52], the melting point was determined as 198 °C. Besides, the “ratio CB2 agonism over CB1 agonism” value in data set [1] (listed as 52) was determined as 331. Besides, the EC50 in data set [1] was 0.692 nM. The molecule further showed an EC50 in data set [2] of 229 nM.
